From US8350027B2, “Dual-acting pyrazole antihypertensive agents” (Theravance, Inc., priority 2009, dated 2013) come the findings set out here.

For one assay, the target named is T1, human AT1 receptor (Homo sapiens, UniProt P30556).
T1 construct: expressed in transfected cells; host or cells: CHO-K1
T1 sequence (P30556 1-359): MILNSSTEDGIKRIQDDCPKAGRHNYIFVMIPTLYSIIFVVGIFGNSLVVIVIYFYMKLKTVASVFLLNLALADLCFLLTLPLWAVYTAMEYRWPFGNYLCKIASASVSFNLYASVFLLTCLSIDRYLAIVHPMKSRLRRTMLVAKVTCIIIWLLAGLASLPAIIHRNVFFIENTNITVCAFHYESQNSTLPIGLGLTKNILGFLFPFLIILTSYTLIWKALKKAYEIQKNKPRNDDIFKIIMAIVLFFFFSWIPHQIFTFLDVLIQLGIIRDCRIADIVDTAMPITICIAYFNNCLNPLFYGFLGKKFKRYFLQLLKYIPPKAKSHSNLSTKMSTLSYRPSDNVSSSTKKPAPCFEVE
Nature of the assay: AT1 radioligand binding assay (displacement of [Eu]AngII). The note with it: membranes of CHO-K1 cells expressing cloned human AT1 receptor; values given as lower bounds; read-out: AT1 pKi (converted). Summed up: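 Membranes from CHO-K1 cells stably expressing cloned human AT1, 0.2 μg protein, in 50 mM Tris/HCl pH 7.5, 5 mM MgCl2, 0.025% BSA. Compounds displaced [Eu]AngII over 120 min in the dark at room temperature or 37° C; filter-bound TRF read. Nonspecific binding with 10 μM angiotensin II; IC50 converted to Ki via Cheng-Prusoff, reported as pKi.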

The next assay has as its target T2, NEP enzyme (Homo sapiens, UniProt P08473).
T2 construct: purchased R&D Systems, Minneapolis, Minn; 1182-ZN
Nature of the assay: NEP enzyme inhibition assay (fluorogenic peptide substrate). The conditions noted are these: values given as lower bounds; * = prodrugs, may not exhibit NEP activity in an in vitro assay; read-out: NEP pIC50 (converted). The class given is biochemical. Summed up:
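Recombinant human NEP was run with Mca-BK2 (10 μM) at room temperature in Tris buffer with 1 μM Zn. Compounds (10 μM–20 pM, 12 points) were pre-equilibrated 10 min, then reacted 20 min and acid-stopped. Fluorescence ex 320/em 405 nm, one-site competition fit gives pIC50. Thiol compounds may be pre-treated with 400 μM TCEP.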

T2 sequence (P08473 52-750 limits assumed): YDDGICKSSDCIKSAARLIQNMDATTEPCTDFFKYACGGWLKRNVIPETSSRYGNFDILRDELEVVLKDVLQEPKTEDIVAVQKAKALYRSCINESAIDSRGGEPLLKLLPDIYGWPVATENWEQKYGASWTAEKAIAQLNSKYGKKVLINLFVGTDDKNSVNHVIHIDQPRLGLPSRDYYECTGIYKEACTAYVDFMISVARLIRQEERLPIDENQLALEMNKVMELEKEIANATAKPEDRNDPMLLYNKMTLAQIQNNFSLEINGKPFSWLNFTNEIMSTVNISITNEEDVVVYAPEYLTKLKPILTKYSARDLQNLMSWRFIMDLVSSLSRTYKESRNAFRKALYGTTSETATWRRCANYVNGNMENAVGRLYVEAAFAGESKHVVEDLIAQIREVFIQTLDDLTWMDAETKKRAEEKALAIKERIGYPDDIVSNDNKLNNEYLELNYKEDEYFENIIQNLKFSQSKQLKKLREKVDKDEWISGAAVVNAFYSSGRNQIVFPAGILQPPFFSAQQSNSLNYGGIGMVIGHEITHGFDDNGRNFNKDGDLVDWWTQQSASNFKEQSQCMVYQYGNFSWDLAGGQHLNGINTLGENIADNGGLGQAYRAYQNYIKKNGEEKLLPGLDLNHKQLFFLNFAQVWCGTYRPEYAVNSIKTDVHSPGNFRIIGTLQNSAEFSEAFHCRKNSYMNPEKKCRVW

For `CCOc1cc(C(=O)N[C@@H](CS)CC(C)C)nn1Cc1ccc(-c2ccccc2-c2nnn[nH]2)cc1` [Example 3-5, 5-Ethoxy-1-[2′-(1H-tetrazol-5-yl)biphenyl-4-ylmethyl]-1H-pyrazole-3-carboxylic acid ((R)-1-mercaptomethyl-3-methylbutyl)amide], the Ki on human AT1 receptor was no more than 100 nM. The IC50 at NEP enzyme is no more than 100 nM.

For `CCCc1cc(C(=O)N[C@H](Cc2ccccc2)[C@@H](O)C(=O)O)nn1Cc1ccc(-c2ccccc2S(=O)(=O)NC(=O)c2ccncc2)cc1` [Example 7-4, (2R,3R)-2-Hydroxy-4-phenyl-3-[(5-propyl-1-{2′-[(pyridine-4-carbonyl)sulfamoyl]biphenyl-4-ylmethyl}-1H-pyrazole-3-carbonyl)amino]butyric acid], on human AT1 receptor, the Ki was no more than 10 nM. For the same molecule, the IC50 on NEP enzyme was no more than 1000 nM.

In the case of `CCCc1cc(C(=O)N[C@H](Cc2ccccc2Cl)[C@@H](O)C(=O)O)nn1Cc1ccc(-c2ccccc2-c2nnn[nH]2)nc1` [Example 14-5, (2R,3R)-4-(2-Chlorophenyl)-2-hydroxy-3-[(5-propyl-1-{6-[2-(1H-tetrazol-5-yl)phenyl]pyridin-3-ylmethyl}-1H-pyrazole-3-carbonyl)amino]butyric acid], the Ki at human AT1 receptor was no more than 10 nM. On NEP enzyme, the IC50 was no more than 100 nM.

In the case of `CCCc1cc(C(=O)N[C@@H](CC(=O)O)Cc2ccccc2)nn1Cc1ccc(-c2ccccc2S(=O)(=O)NC(C)=O)cc1` [Example 6-28, (R)-3-{[1-(2′-Acetylsulfamoylbiphenyl-4-ylmethyl)-5-propyl-1H-pyrazole-3-carbonyl]amino}-4-phenylbutyric acid], the Ki on human AT1 receptor was no more than 10 nM. Moreover, at NEP enzyme, the IC50 is no more than 10000 nM.

On to `CCCc1cc(C(=O)N[C@H](Cc2ccccc2Cl)[C@@H](O)C(=O)O)nn1Cc1ccc(-c2ccccc2-n2nn[nH]c2=O)cc1` [Example 16-6, (2R,3R)-4-(2-Chlorophenyl)-2-hydroxy-3-({1-[2′-(5-oxo-4,5-dihydrotetrazol-1-yl)biphenyl-4-ylmethyl]-5-propyl-1H-pyrazole-3-carbonyl}amino)butyric acid], for which the Ki on human AT1 receptor was no more than 100 nM. Further, the IC50 at NEP enzyme is no more than 100 nM.

Consider `CCOc1cc(C(=O)N[C@H](Cc2ccccc2)[C@@H](O)C(=O)O)nn1Cc1ccc(-c2ccccc2-n2nn[nH]c2=O)cc1` [Example 16-7, (2R,3R)-3-({5-Ethoxy-1-[2′-(5-oxo-4,5-dihydrotetrazol-1-yl)-biphenyl-4-ylmethyl]-1H-pyrazole-3-carbonyl}amino)-2-hydroxy-4-phenylbutyric acid], for which the Ki on human AT1 receptor was no more than 10 nM. Further, the IC50 at NEP enzyme is no more than 100 nM.

`CCCc1cc(C(=O)N[C@@H](CS)CC(C)C)nn1Cc1ccc(-c2ccccc2C(=O)O)cc1F` [Example 9-1, 3′-Fluoro-4′-[3-((R)-1-mercaptomethyl-3-methylbutylcarbamoyl)-5-propylpyrazol-1-ylmethyl]biphenyl-2-carboxylic acid]: the Ki on human AT1 receptor is no more than 100 nM. Also, the IC50 at NEP enzyme is no more than 100 nM.

As to `CCCc1cc(C(=O)N[C@@H](CC(=O)NO)Cc2ccccc2)nn1Cc1ccc(-c2ccccc2S(=O)(=O)NC(C)=O)c(F)c1` [Example 6-17, 1-(2′-Acetylsulfamoyl-2-fluorobiphenyl-4-ylmethyl)-5-propyl-1H-pyrazole-3-carboxylic acid ((R)-1-hydroxycarbamoylmethyl-2-phenylethyl)amide], the Ki at human AT1 receptor is no more than 10 nM. The IC50 at NEP enzyme was no more than 100 nM.

`CCc1cc(C(=O)N[C@H](Cc2ccccc2)[C@@H](O)C(=O)O)nn1Cc1ccc(-c2ccccc2-c2nnn[nH]2)cc1F` [Example 3-37, (2R,3R)-3-({5-Ethyl-1-[3-fluoro-2′-(1H-tetrazol-5-yl)-biphenyl-4-ylmethyl]-1H-pyrazole-3-carbonyl}amino)-2-hydroxy-4-phenylbutyric acid]: the Ki on human AT1 receptor was no more than 100 nM. For the same molecule, the IC50 on NEP enzyme was no more than 10000 nM.
